ChEMBL document CHEMBL1132803, “L-Selenohomocysteine: one-step synthesis from L-selenomethionine and kinetic analysis as substrate for methionine synthases” (Bioorg Med Chem Lett, 2000)

How the values were obtained:
[1] = Second order rate constant was determined; assay type: ADME
[2] = Specific activity of compound was determined; assay type: ADME

- Km [1]: 69 µM
- Specific activity [2]: 0.23 µM/min/mg
SMILES: NC(CCS)C(=O)O (configuration not stated) [HOMOCYSTEINE]
